US20230151434A1, “REAWAKENING OF DORMANT TUMOR CELLS BY MODIFIED LIPIDS DERIVED FROM STRESS ACTIVATED NEUTROPHILS” (The Wistar Institute of Anatomy and Biology, priority 2020, published 2023)
Like-named read-outs stand apart in the source and are kept apart here.

Key:
[1] = system: KPr^p53A cells; assay: In vitro co-culture of dormant tumor cells with PMN (count of GFP+ cells); format: cell-based, mouse; conditions: for reactivation/proliferation of KPr^p53A cells cultured with PMN plus supplement: supplement added with PMN, LPS 0.5 to 2 μg/ml
Method: (§1) The KPr cell line (16) was maintained in RPMI 1640 medium (Corning) and 10% FBS (Gibco). Treatment of KPr cells with 250 nM 4-hydroxytamoxifen (4-OHT, Sigma-Aldrich) induced p53 expression. p53-induced cells (KPr^p53) were stained with CellTrace dye for 20 min at 37° C. according to the manufacturer's instructions (Life Technologies) and seeded at 8500 cells/cm^2 in culture in a T175 tissue culture-treated flask (Gibco). After 7 days, cells were detached and sorted based on the CellTrace dye intensity as proliferating (KPr^p53P, with lower CellTrace) and arrested cells (KPr^p53A, with higher-intensity CellTrace; see FIG. 1A for representative image). LL2 cells were seeded at 1000 cells/cm2 and treated for 3 days with 2.5 μM cisplatin (Selleckchem). After that, cells were stained with CellTrace and sorted as described above. OVCAR3 cell senescence was induced by treating 5×10^4 cells/cm2 with 0.5 μM cisplatin for 72 hours. After that time, cells were stained with CellTrace and sorted. A549 senescence was induced by 72-hour treatment with 4 μM cisplatin and cells were sorted after staining with CellTrace. Time points for sorting were chosen as the best to observe separation between arrested and proliferating cells. Cells were sorted on Astrios (Beckman Coulter) or Melody (Becton Dickinson) fluorescence-activated cell sorters.
(§2) Arrested tumor cells were plated at 100 cells/cm^2 in a 48-well tissue culture-treated plate (Costar) for coculture experiments. After 24 hours, PMN-MDSC or PMN were added at indicated ratios. Cocultures were maintained for 48 hours in RPMI 1640+10% FBS in the presence of mouse recombinant GM-CSF (10 ng/ml; Rocky Hill) to ensure neutrophil viability. All control conditions were in the presence of media with GM-CSF. All indicated supplements (NE, S100A8/A9, BGJ398, ICI 118-551, IL-2, MPO inhibitor, LPS, lipids, PMA, and thapsigargin 1 μM) were added to culture at the same time as PMN and maintained for 48 hours. After that, media were removed and replaced by fresh media without GM-CSF. After 1 week, GFP^+ cells in wells were counted via an inverted microscope. When lipid extracts were used, lipids were added to dormant cells in culture at 1 to 0.05 or 0.01 nmol as indicated in each experiment.

[2] = system: LL2^cisA and AT-3^DoxA cells; assay: In vitro co-culture of chemotherapy-arrested mouse tumor cells with PMN; format: cell-based
Method: as §1, §2

[3] = system: A549^cisA and OVCAR3^cisA cells; assay: In vitro co-culture of chemotherapy-arrested human tumor cells with human PMN; format: cell-based
Method: as §1, §2

[4] = system: KPr, KPr^p53P and KPr^p53A^react cells; assay: Cell proliferation (luciferase activity); format: cell-based, mouse; conditions: 5 or 10 μM
Method: Two thousand cells per well were seeded in 96-well clear bottom plate in triplicate (Lonza). Sixteen hours after seeding, NE (Sigma-Aldrich) at 0.5 to 5 μM final concentration or BGJ398 at 0.75 μM final concentration (Selleckchem) was added to culture. To test the effect of BGJ398t on KPr^p53A^React cells, escalating doses ranging from 0 to 10 μM final concentrations were used. To detect luciferase activity (proportional to number of cells in culture), Luciferin (PerkinElmer) was added 1:200 from stock according to the manufacturer's instructions and luminescence was measured with a Victor spectrophotometer (PerkinElmer).

[5] = system: LL2^cisA cells; assay: In vivo stress induction, C57BL/6 mice injected with LL2^cisA cells; set-up: species or system mouse; conditions: 30 mg/kg, 3 weeks of stress
Source text: A total of 2.5×10^4 KPr^p53A cells were intravenously injected to NOD/SCID mice. Beginning 3 weeks after injection, mice were imaged weekly. Luciferin (PerkinElmer) was intraperitoneally injected in mice before imaging according to the manufacturer's instruction. Mice were imaged with IVIS Spectrum In Vivo Imaging System (IVIS, PerkinElmer) to detect luminescent signal coming from growing cancer cells. Mice were put under anesthesia in the induction chamber with isoflurane vaporizer set to 2.5%, at a flow rate of ˜1.5 liters/min. Mice were then transferred in the IVIS imaging stage nose cone inside the IVIS manifold (IVIS manifold nose cones flow set to ˜0.25 LPM). Animals were monitored by video during imaging. Once the images of luciferase/luciferin activity were acquired, the anesthesia was turned off and the animals were returned to their cages. […] Analysis and quantification were performed with IVIS imaging system Living Image Software 4.7.4 (PerkinElmer). […] When signal was detected, mice were sacrificed, and bioluminescent images of the harvested lung were taken. […] If no bioluminescence was detected in lungs after 80 days from last PMN injection, experiments were terminated, and lung tissue were collected. […] Bioluminescence was not detected in any LL2^CisA-injected mice at 3 weeks after injection. Mice were treated with PMN or PMN-MDSC and analyzed as described above. […]

[6] = system: PMN; assay: PMN viability (proportion of live PMN); format: cell-based, mouse
Method: FIG. 2A-FIG. 2K show neutrophil-mediated reactivation of dormant cells is regulated by stress-induced S100A8/A9. (FIG. 2A) Fold increase in the number of KPr^p53A cells cultured in the presence of PMN and S100A8/A9 or indicated cytokines relative to KPr^p53A cells cultured with PMN. Three independent experiments with 16 replicates were performed. Mean±SEM of one experiment is shown. (FIG. 2B) Fold increase in the number of KPr^p53A cells cultured in the presence of PMN and LPS relative to KPr^p53A cells cultured with PMN or alone. Means±SEM of three independent experiments with 16 replicates each are shown. (FIG. 2C) Fold increase in the number of KPr^p53A cells cultured in the presence of S100A8/A9 alone, PMN and S100A8/A9, or PMN-MDSC relative to KPr^p53A cultured alone. Means±SEM of 10 independent experiments with 16 replicates each are shown. (FIG. 2D) S100A8/A9 protein produced by PMN after treatment with indicated hormones or LPS was measured by ELISA. PMN-MDSC were isolated from spleens of Lewis lung carcinoma tumor-bearing mice. Means±SEM and results of each independent experiment with three replicates are shown. (FIG. 2E) S100A8/A9 protein secreted in vitro from PMN and PMN treated with NE with or without ICI-118; […] as measured by ELISA. Means±SEM and results of independent experiment with three replicates are shown. (FIG. 2F) Flow cytometry staining of ADRB2 receptor (dark gray) on PMN isolated from mouse spleen. Isotype control, light gray. Representative histogram of three experiments is shown. (FIG. 2G) Fold increase in the number of KPr^p53A cells cultured with PMN alone, NE alone, PMN and NE together, and PMN and NE plus ICI-118; 553 relative to KPr^p53A cells cultured alone (Ctrl). Ten independent experiments with 16 replicates for each experiment were performed. Means±SEM in a representative experiment are shown. (FIG. 2H) Number of KPr^p53A cells cultured in the presence of PMN from S100a9KO mice alone or together with NE relative to KPr^p53A cells cultured alone (ctrl). Means±SEM are reported for 16 replicates. (FIG. 2I) Percentage of live PMN after overnight incubation with NE, S100A8/A9, or LPS. Each dot represents the average of three experimental replicates of one single experiment. Means±SEM are shown for each group. (FIG. 2J) Fold increase in number of LL2^CisA cells cultured with PMN alone or together with S100A8/A9 or NE relative to LL2^CisA cultured alone (Ctrl). Means±SEM of three independent experiments with 16 replicates each are shown. […] In all panels, P values were calculated using ANOVA test with correction for multiple comparisons.
FIG. 11A-FIG. 11G show the mechanism of dormant tumor cell reactivation. […] P values were calculated by ANOVA test with correction for multiple comparisons. […]

[7] = system: PMN; assay: S100A8/A9 release by PMN measured by ELISA; format: cell-based, mouse; conditions: PMN treated with stress hormones or LPS
Method: PMN or PMN-MDSC were isolated from spleen of tumor-free mice or LLC tumor-bearing mice, respectively. A total of 5×10^5 LLC cells were injected into the right flank of mice, and spleens were harvested when tumors reached 200 mm^2. Spleens were mechanically dissociated. Red blood cells were lysed with ACK buffer cells. Splenocytes were stained with mouse biotin-conjugated Ly6G antibody (Miltenyi Biotec) followed by biotin microbeads. Ly6G+ cells were purified by magnetic separation with MACS column for magnetic cell isolation, according to the manufacturer's instructions (Miltenyi Biotec).
One hundred microliters of mouse peripheral blood was collected from facial vein. NE was measured by a mouse NE ELISA Kit (Novus Biologicals). S100A8/A9 was measured by Mouse S100A8/S100A9 Heterodimer DuoSet ELISA (R&D Systems). S100A8/A9 concentrations in human serum samples were determined by using a double-sandwich ELISA system as previously described (64), which is different from commercial ELISA kits. Human NE was measured using an ELISA kit (Abnova).

[8] = system: LL2, A549 and OVCAR3 cells; assay: Cisplatin-induced tumor cell dormancy; format: cell-based, mouse; human; conditions: LL2 2.5 μM, A549 4 μM, OVCAR3 0.5 μM, 72 hours
Method: as §1, with “sorters. […]” for “sorters.”

CCN1CCN(c2ccc(Nc3cc(N(C)C(=O)Nc4c(Cl)c(OC)cc(OC)c4Cl)ncn3)cc2)CC1 [BGJ398, infigratinib] was tested, and the “reactivation of KPr^p53A cells by PMN treated with S100A8/A9 or NE, effect of FGFR blockade” value ([1]; KPr^p53A) was “abrogated their reactivation by PMN treated with S100A8/A9 or NE”, the “reactivation of LLC^cisA cells by PMN treated with S100A8/A9 or NE, effect of FGFR blockade” value ([2]; LLC^cisA) was “abrogated their reactivation by PMN treated with S100A8/A9 or NE” and the “reactivation of A549^cisA cells by PMN treated with S100A8/A9 or NE, effect of FGFR blockade” value ([3]; A549^cisA) was “abrogated their reactivation by PMN treated with S100A8/A9 or NE”. The “reactivation of OVCAR3^cisA cells by PMN treated with S100A8/A9 or NE, effect of FGFR blockade” value ([3]; OVCAR3^cisA) was “abrogated their reactivation by PMN treated with S100A8/A9 or NE”, the “proliferation of KPr^p53A^react cells” value [4] was “abrogated cell proliferation” and the “proliferation of KPr^p53P cells” value [4] was “did not affect proliferation of tumor cells”. For the same compound, the “proliferation of parental KPr cells” value [4] was “did not affect proliferation of tumor cells” and the “mice with lung tumor lesions despite exposure to stress” value [5] was 0 of 4.

NC[C@H](O)c1ccc(O)c(O)c1 [NE, norepinephrine] was tested, and the “reactivation/proliferation of KPr^p53A cells, supplement alone” value ([1]; absence of PMN) was “did not affect the proliferation of KPr^p53A cells”, the “reactivation/proliferation of KPr^p53A cells cultured with PMN plus supplement” value [1] was “caused proliferation of tumor cells” and the “proliferation of arrested mouse tumor cells cultured with mouse PMN plus supplement” value ([2]; LL2^cisA, AT-3^DoxA) was “reactivated dormant mouse and human tumor cells”. For the same compound, the “reactivation of arrested human tumor cells cultured with human PMN plus supplement” value ([3]; A549^cisA, OVCAR3^cisA) was “reactivated dormant mouse and human tumor cells”, the PMN viability [6] was “did not affect PMN viability” and the “S100A8/A9 release by PMN” value [7] was “caused rapid release of S100A8/A9 proteins”.

In the case of N.N.[Cl][Pt][Cl] [cisplatin], the “induction of proliferation arrest / senescence-like phenotype in tumor cells” value [8] is reported as “caused a senescence-like phenotype in tumor cells in vitro” and the “induction of proliferation arrest / senescence-like phenotype in tumor cells” value ([8]; listed as Cisplatin) is reported as “generated proliferation-arrested cells”.

For Lipopolysaccharide [LPS], the “reactivation/proliferation of KPr^p53A cells cultured with PMN plus supplement” value [1] was “did not affect the ability of PMN to reactivate KPr^p53A cells” and the PMN viability ([6]; overnight incubation) was “markedly reduced it”.
